Test results as given in patent publication US12649745B2, “Amino-pyrimidine cyclo-amides” (Hoffmann-La Roche Inc., priority 2020, dated 2026).

Target: T1, human Autotaxin (ATX) (Homo sapiens, UniProt Q13822)
T1 construct: generate a full length human ENPP2 ORF with or without a 3′-6×His tag; 6xHis (C); made in house; host or cells: FreeStyle 293-F cells (transient transfection), purified from culture supernatant
Assay: Human ATX enzyme inhibition assay (LPC substrate, choline oxidase/HRP/Amplex Red coupled format)
Type: biochemical
Conditions: recombinant hATX 1 nM, 18:1 LPC 30 μM, fluorescence at 90 mins minus 5 mins
Experimental: Human ATX Enzyme Inhibition Assay
To identify inhibitors of the human Autotaxin (ATX) enzyme an in-vitro biochemical profiling assay has been developed using lysophosphatidylcholine (LPC) as substrate and recombinant enzyme. ATX activity is assayed via a coupled enzyme format where choline produced from LPC hydrolysis is converted to hydrogen peroxide by choline oxidase (CO). Hydrogen peroxide is in turn used as a co-substrate by horseradish peroxidase (HRP) to oxidise Amplex Red® and generate the red-fluorescent product, Resorufin.
50 mM Tris-HCl (pH 8.0); 120 mM NaCl; 20 mM CaCl2; 5 mM KCl; 1 mM MgCl2; 0.01% Triton X-100, sterile-filtered and stored at 4° C.
50 mM Tris-HCl (pH 8.0); 150 mM NaCl
human Autotaxin (hATX): 0.97 mg/ml (9.718 μM) Molecular weight 99817. Working solution of 1.5 μM used in this assay.
100 mM 18:1 LPC dissolved in reagent dilution-buffer.
500 U/ml Choline Oxidase in reagent dilution buffer.
2540 U/ml Horseradish Peroxidase, in reagent dilution buffer (10.95 mg/ml).
20 mM Amplex Red (10-Acetyl-3,7-dihydroxy-phenoxazin) in DMSO.
Black, 384-well plate, black with clear bottom, non-treated surface.
Test compounds are received pre-diluted in DMSO as an 11-point concentration-response (0.5 mM highest concentration; 1 in 3.162 dilution). Test compounds are pre-diluted 1:1 (10 μL compound+10 μL assay buffer) in a 96-well conical bottomed plate prior to use.
ATX is diluted to 2.2 nM in assay buffer. Choline oxidase and horseradish peroxidase are diluted to 7.3 U/ml and 14.7 U/ml, respectively. 18:1 LPC and Amplex Red® are diluted to 110 μM and 183.3 μM, respectively (solution protected from light). 2.2 μL of compound pre-dilution or 50% DMSO is added to the reaction plate followed by 25 μL of ATX or assay buffer (negative control). Assay plate is mixed and incubated at room temperature for 10 mins. 15 μL of choline oxidase/horseradish peroxidase is then added. To initiate the reaction 15 μL of LPC 18:1/Amplex Red is added. Assay plate is mixed and incubated at room temperature in the dark. Fluorescence is measured at 5 mins (for background subtraction) and 90 mins.
Final Assay Concentrations:
Horse Radish Peroxidase: 4 U/ml
Fluorescence at 5-minutes is subtracted from the 90-minute end point data and normalized with respect to the positive control. IC50 values are calculated.
Results in the enzymatic ATX inhibition assay are provided for compounds of formula (I).

How did the IC50 turn out when `N#Cc1cc(Cl)cc2c1C[C@@H](Nc1ncc3c(n1)CN(C(CF)CF)C3=O)C2` [Example 26, (S)-6-chloro-2-((6-(1,3-difluoropropan-2-yl)-5-oxo-6,7-dihydro-5H-pyrrolo[3,4-d]pyrimidin-2-yl)amino)-2,3-dihydro-1H-indene-4-carbonitrile] was run?
Its IC50 is 4 nM.

How did the IC50 turn out when `N#Cc1cc(Cl)cc2c1C[C@@H](Nc1ncc3c(n1)CCNC3=O)C2` [Example 27, (S)-6-chloro-2-((5-oxo-5,6,7,8-tetrahydropyrido[4,3-d]pyrimidin-2-yl)amino)-2,3-dihydro-1H-indene-4-carbonitrile] was run?
The IC50 was 3 nM.

With `CC1(CN2Cc3nc(N[C@H]4Cc5cc(Cl)cc(C#N)c5C4)ncc3C2=O)COC1` [Example 28, (S)-6-chloro-2-((6-((3-methyloxetan-3-yl)methyl)-5-oxo-6,7-dihydro-5H-pyrrolo[3,4-d]pyrimidin-2-yl)amino)-2,3-dihydro-1H-indene-4-carbonitrile] as the compound, how does the IC50 read?
Its IC50 is 6 nM.

How did the IC50 turn out when `N#Cc1cc(Cl)cc2c1C[C@@H](Nc1ncc3c(n1)CCN(C1CCOCC1)C3=O)C2` [Example 29, (S)-6-chloro-2-((5-oxo-6-(tetrahydro-2H-pyran-4-yl)-5,6,7,8-tetrahydropyrido[4,3-d]pyrimidin-2-yl)amino)-2,3-dihydro-1H-indene-4-carbonitrile] was run?
Its IC50 is 4 nM.

With `CC(C)N1CCc2nc(N[C@H]3Cc4cc(Cl)cc(C#N)c4C3)ncc2C1=O` [Example 30, (S)-6-chloro-2-((6-isopropyl-5-oxo-5,6,7,8-tetrahydropyrido[4,3-d]pyrimidin-2-yl)amino)-2,3-dihydro-1H-indene-4-carbonitrile] as the compound, how does the IC50 read?
Its IC50 is 2 nM.

For `N#Cc1cc(Cl)cc2c1C[C@@H](Nc1ncc3c(n1)CCN(CC1CC1)C3=O)C2` [Example 31, (S)-6-chloro-2-((6-(cyclopropylmethyl)-5-oxo-5,6,7,8-tetrahydropyrido[4,3-d]pyrimidin-2-yl)amino)-2,3-dihydro-1H-indene-4-carbonitrile], which IC50 is on record?
Its IC50 is 2 nM.

How did the IC50 turn out when `CCN1Cc2nc(N[C@H]3Cc4cc(Cl)cc(C#N)c4C3)ncc2C1=O` [Example 33, (S)-6-chloro-2-((6-ethyl-5-oxo-6,7-dihydro-5H-pyrrolo[3,4-d]pyrimidin-2-yl)amino)-2,3-dihydro-1H-indene-4-carbonitrile] was run?
The IC50 was 2 nM.

With `CCN1CCc2nc(N[C@H]3Cc4cc(Cl)cc(C#N)c4C3)ncc2C1=O` [Example 34, (S)-6-chloro-2-((6-ethyl-5-oxo-5,6,7,8-tetrahydropyrido[4,3-d]pyrimidin-2-yl)amino)-2,3-dihydro-1H-indene-4-carbonitrile] as the compound, how does the IC50 read?
The IC50 was 3 nM.

With `N#Cc1cc(Cl)cc2c1C[C@@H](Nc1ncc3c(n1)CNC3=O)C2` [Example 35, (S)-6-chloro-2-((5-oxo-6,7-dihydro-5H-pyrrolo[3,4-d]pyrimidin-2-yl)amino)-2,3-dihydro-1H-indene-4-carbonitrile] as the compound, how does the IC50 read?
The IC50 was 2 nM.

Which IC50 does the source give for `N#Cc1cc(Cl)cc2c1C[C@@H](Nc1ncc3c(n1)CCN(CC(F)(F)F)C3=O)C2` [Example 36, (S)-6-chloro-2-((5-oxo-6-(2,2,2-trifluoroethyl)-5,6,7,8-tetrahydropyrido[4,3-d]pyrimidin-2-yl)amino)-2,3-dihydro-1H-indene-4-carbonitrile] here?
Its IC50 is 3 nM.
